These results are taken from US7563895B2, “Quinoxaline compounds” (Janssen Pharmaceutica, N.V., priority 2003, dated 2009).

The target in this assay is T1, CCK2 receptor (Homo sapiens, UniProt P32239).
T1 construct: Membranes were prepared from the HEKZFP cells after induction; endogenous in cells; host or cells: HEKZFP cells (T-REx-293 with tet-inducible ZFP-VP16 specific for the CCK2R gene), doxycycline-induced; membrane preparation
T1 sequence (P32239 1-447): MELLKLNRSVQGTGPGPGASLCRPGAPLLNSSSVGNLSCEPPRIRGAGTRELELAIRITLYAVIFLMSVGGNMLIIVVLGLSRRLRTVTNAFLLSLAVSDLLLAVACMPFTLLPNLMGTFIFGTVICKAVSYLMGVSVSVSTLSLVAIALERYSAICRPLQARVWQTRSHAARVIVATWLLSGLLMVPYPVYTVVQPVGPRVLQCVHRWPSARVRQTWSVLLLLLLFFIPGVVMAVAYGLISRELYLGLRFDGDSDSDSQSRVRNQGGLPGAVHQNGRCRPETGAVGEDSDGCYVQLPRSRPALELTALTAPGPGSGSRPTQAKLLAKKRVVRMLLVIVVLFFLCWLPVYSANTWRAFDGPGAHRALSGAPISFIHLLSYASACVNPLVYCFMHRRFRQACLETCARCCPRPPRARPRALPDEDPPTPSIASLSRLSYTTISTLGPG
Kind of assay: CCK2 receptor radioligand binding assay ([125I]-BH-CCK-8S, HEKZFP cell membranes). The conditions noted are these: competition with [125I]-BH-CCK-8S, membranes of induced HEKZFP cells, 60 min at 21±3° C., Cheng-Prusoff. As for the experimental part:
Zinc Finger Proteins (ZFP) specific for the CCK2R gene were identified by Sangamo Biosciences. The ZFP domain was fused with the herpes simplex virus VP16 activation domain, and the fusion protein was subsequently cloned into the pcDNA3 mammalian expression vector (Invitrogen, San Diego, Calif.). […] After 2 weeks of selection in culture medium containing […] Zeocin (Invitrogen), sixty drug-resistant stable clones were isolated and analyzed for ZFP expression as well as CCK2R induction upon addition of doxycycline to the culture medium.
HEKZFP cells were grown in DMEM supplemented with L-glutamine (2 mM), penicillin (50 units/mL) and streptomycin (50 μg/mL) and 10% FBS (v/v).
Membranes were prepared from the HEKZFP cells after induction. […] The thawed pellets were homogenized using a Polytron PT-10 (7×1 s). The homogenates were centrifuged for 5 min at 1500 rpm (600×g), and the resulting pellets were discarded. The supernatants were re-centrifuged in order to collect the receptor-membrane pellets (25 min 15,000 rpm; 39,800×g), which were re-suspended in buffer A.
The assay preparation was incubated for 1 h at 21±3° C., and then the assay was terminated by rapid filtration of the preparation under reduced pressure. The loaded filters were washed three times using undiluted PBS (100 μL), and then 100 μL of scintillation fluid was added to the filter plate. Bound radioactivity was determined using a Topcount (Packard BioScience, Meriden, Conn.) with a count time of 1 min. […] To validate the radioligand concentration and incubation time for the assay, saturation and kinetic binding studies were also conducted (see M. F. Morton, The Pharmacological Characterization of Cholecystokinin Receptors in the Human Gastrointestinal Tract. PhD Thesis, University of London, 2000). […] The assay was then terminated according to the procedure outlined above.
The pKi values were determined using the equation of Y.-C.
To circumvent problems associated with computer-assisted data analysis of compounds with low affinity, the data obtained in the current study were weighed according to a method described by Morton. In brief, 100% and 0% specific binding were defined independently using total binding and binding obtained in the presence of a high concentration of the reference antagonist, 2-NAP.

For the molecule `C[C@@H](NC(=O)c1cc(Cl)c(Cl)cc1NS(=O)(=O)c1cccc2nccnc12)c1ccc(F)cc1F` [Example 5, (R)-4,5-Dichloro-N-[1-(2,4-difluorophenyl)ethyl]-2-(quinoxaline-5-sulfonylamino)-benzamide], affinity was put at a Ki of 15.8 nM.

As to `O=C(NCc1ccc(Cl)cc1Cl)c1ccc(Cl)cc1NS(=O)(=O)c1cccc2nccnc12` [Example 58, 4-Chloro-N-(2,4-dichloro-benzyl)-2-(quinoxaline-5-sulfonylamino)-benzamide], the Ki (as a rule, a measure of affinity in units of concentration, obtained from inhibition or displacement) was 63.1 nM. On the same count and under the same terms, in the case of `C[C@H](NC(=O)c1ccc(Cl)cc1NS(=O)(=O)c1cccc2nccnc12)c1ccc(Cl)cc1Cl` [Example 9, (S)-4-Chloro-N-[1-(2,4-dichlorophenyl)ethyl]-2-(quinoxaline-5-sulfonylamino)-benzamide] it was 39.8 nM; in that of `O=C(NCc1ccc(F)cc1F)c1ccc(Br)cc1NS(=O)(=O)c1cccc2nccnc12` [Example 17, 4-Bromo-N-(2,4-difluoro-benzyl)-2-(quinoxaline-5-sulfonylamino)-benzamide], 63.1 nM; in that of `O=C(c1ccc(Br)cc1NS(=O)(=O)c1cccc2nccnc12)N1CCOc2cc(F)ccc2C1` [Example 39, Quinoxaline-5-sulfonic acid [5-bromo-2-(8-fluoro-2,3-dihydro-5H-benzo[f][1,4]oxazepine-4-carbonyl)phenyl]-amide], 79.4 nM. `O=C(NC(CF)c1ccc(F)cc1F)c1ccc(Br)cc1NS(=O)(=O)c1cccc2nccnc12` (stereo not drawn) [Example 74, 4-Bromo-N-[1-(2,4-difluoro-phenyl)-2-fluoro-ethyl]-2-(quinoxaline-5-sulfonylamino)-benzamide] had a Ki of 31.6 nM.

The molecule `C[C@@H]1COC[C@H](C)N1C(=O)c1ccc(I)cc1NS(=O)(=O)c1cccc2nccnc12` [Example 25, (R,S)-Quinoxaline-5-sulfonic acid [2-(3,5-dimethylmorpholine-4-carbonyl)-5-iodophenyl]-amide] had a Ki of 316 nM. On the same count and under the same terms, in the case of `C[C@@H](NC(=O)c1ccc(F)cc1NS(=O)(=O)c1cccc2nccnc12)c1ccc(Cl)cc1Cl` [Example 37, (R)—N-[1-(2,4-Dichlorophenyl)-ethyl]-4-fluoro-2-(quinoxaline-5-sulfonylamino)-benzamide] it was 200 nM. Turning to `O=C(c1ccc(Cl)cc1NS(=O)(=O)c1cccc2nccnc12)N1CCOCC1` [Example 14, (R)-Quinoxaline-5-sulfonic acid [5-chloro-2-(morpholine-4-carbonyl)phenyl]-amide], the pKi (in general, the Ki on a negative log10 scale, so that one unit is a factor of ten) is reported as 6.5. In turn, `O=C(N[C@H](CF)c1ccc(F)cc1)c1ccc(Br)cc1NS(=O)(=O)c1cccc2nccnc12` [Example 71, (S)-4-Bromo-N-[2-fluoro-1-(4-fluoro-phenyl)-ethyl]-2-(quinoxaline-5-sulfonylamino)-benzamide] gave a Ki of 79.4 nM. In turn, `CN(Cc1ccccc1)C(=O)c1ccc(I)cc1NS(=O)(=O)c1cccc2nccnc12` [Example 42, N-Benzyl-4-iodo-N-methyl-2-(quinoxaline-5-sulfonylamino)-benzamide] had a Ki of 25.1 nM. `O=C(c1ccc(I)cc1NS(=O)(=O)c1cccc2nccnc12)N1CCCCC1` [Example 4, Quinoxaline-5-sulfonic acid [5-iodo-2-(piperidine-1-carbonyl)-phenyl]-amide] gave a Ki of 25.1 nM. This counts as double-digit nanomolar. The same measure, in the same setting: then `C[C@@H](NC(=O)c1ccc(Br)cc1NS(=O)(=O)c1cccc2nccnc12)c1ccc(F)cc1` [Example 8, (R)-4-Bromo-N-[1-(4-fluorophenyl)-ethyl]-2-(quinoxaline-5-sulfonylamino)-benzamide], with 39.8 nM.

`O=C(NCc1ccc(F)cc1F)c1ccc(I)cc1NS(=O)(=O)c1cccc2nccnc12` [Example 57, N-(2,4-Difluoro-benzyl)-4-iodo-2-(quinoxaline-5-sulfonylamino)-benzamide] yielded a pKi of 7.4. Molecule `CC(NC(=O)c1ccc(Br)cc1NS(=O)(=O)c1cccc2nccnc12)c1ccc(F)cc1` (stereo not drawn) [Example 53, 4-Bromo-N-[1-(4-fluoro-phenyl)-ethyl]-2-(quinoxaline-5-sulfonylamino)-benzamide] gave a Ki of 25.1 nM. The molecule `O=C(NC(CF)c1ccc(F)cc1F)c1ccc(I)cc1NS(=O)(=O)c1cccc2nccnc12` (stereo not drawn) [Example 75, N-[1-(2,4-Difluoro-phenyl)-2-fluoro-ethyl]-4-iodo-2-(quinoxaline-5-sulfonylamino)-benzamide] had a Ki of 63.1 nM. This Ki is about 2.5-fold higher than that of the molecule before. Same read-out and setting: then `C[C@H](c1ccccc1)N(C)C(=O)c1ccc(Br)cc1NS(=O)(=O)c1cccc2nccnc12` [Example 33, (R)-4-Bromo-N-methyl-N-(1-phenyl-ethyl)-2-(quinoxaline-5-sulfonylamino)-benzamide], with 12.6 nM; and `O=C(c1ccc(I)cc1NS(=O)(=O)c1cccc2nccnc12)N1CCOc2cc(F)cc(F)c2C1` [Example 94, Quinoxaline-5-sulfonic acid [2-(6,8-difluoro-2,3-dihydro-5H-benzo[f][1,4]oxazepine-4-carbonyl)-5-iodo-phenyl]-amide], with 398 nM.

In turn, `O=C(c1ccc(I)cc1NS(=O)(=O)c1cccc2nccnc12)N1CCCCCC1` [Example 18, Quinoxaline-5-sulfonic acid [2-(azepane-1-carbonyl)-5-iodophenyl]-amide] had a Ki of 63.1 nM. This Ki is about 6.3-fold lower than that of the molecule before. Still for that read-out and setting: in the case of `CN(Cc1ccc(F)cc1)C(=O)c1ccc(Br)cc1NS(=O)(=O)c1cccc2nccnc12` [Example 45, 4-Bromo-N-(4-fluoro-benzyl)-N-methyl-2-(quinoxaline-5-sulfonylamino)-benzamide] it was 31.6 nM. Take `C[C@@H](NC(=O)c1ccc(Cl)cc1NS(=O)(=O)c1cccc2nccnc12)c1ccc(F)cc1` [Example 7, (R)-4-Chloro-N-[1-(4-fluorophenyl)-ethyl]-2-(quinoxaline-5-sulfonylamino)-benzamide]: the affinity, expressed as Ki, was 31.6 nM. Same read-out and setting: then `C[C@@H](NC(=O)c1ccc(Cl)cc1NS(=O)(=O)c1cccc2nccnc12)c1ccc(F)cc1F` [Example 3, (R)-4-Chloro-N-[1-(2,4-difluorophenyl)-ethyl]-2-(quinoxaline-5-sulfonylamino)-benzamide], with 12.6 nM. On the same count and under the same terms, in the case of `C[C@@H](NC(=O)c1ccc(Br)cc1NS(=O)(=O)c1cccc2nccnc12)c1ccc(Cl)cc1Cl` [Example 1, (R)-4-Bromo-N-[1-(2,4-dichlorophenyl)-ethyl]-2-(quinoxaline-5-sulfonylamino)-benzamide] it was 7.94 nM. The same measure, in the same setting: in the case of `CC(NC(=O)c1ccc(I)cc1NS(=O)(=O)c1cccc2nccnc12)c1ccc(F)cc1` (stereo not drawn) [Example 54, N-[1-(4-Fluoro-phenyl)-ethyl]-4-iodo-2-(quinoxaline-5-sulfonylamino)-benzamide] it was 39.8 nM. `O=C(c1ccc(Br)cc1NS(=O)(=O)c1cccc2nccnc12)N1CCCCC1` [Example 32, Quinoxaline-5-sulfonic acid [5-bromo-2-(piperidine-1-carbonyl)-phenyl]-amide] yielded a negative-log Ki (pKi) of 7.2. The molecule `CN(Cc1ccc(F)cc1)C(=O)c1ccc(I)cc1NS(=O)(=O)c1cccc2nccnc12` [Example 35, N-(4-Fluorobenzyl)-4-iodo-N-methyl-2-(quinoxaline-5-sulfonylamino)-benzamide] had a Ki of 15.8 nM.

On to `O=C(NCc1ccc(F)cc1Cl)c1ccc(Cl)cc1NS(=O)(=O)c1cccc2nccnc12` [Example 61, 4-Chloro-N-(2-chloro-4-fluoro-benzyl)-2-(quinoxaline-5-sulfonylamino)-benzamide], for which affinity was put at a Ki of 39.8 nM. This Ki is about 2.5-fold higher than that of the molecule before.
